Measured values reported in ChEMBL document CHEMBL4002566, “S-substituted 3,5-dinitrophenyl 1,3,4-oxadiazole-2-thiols and tetrazole-5-thiols as highly efficient antitubercular agents” (Eur J Med Chem, 2017).

Key:
Mycobacterium avium [1] = assay: Antimycobacterial activity against Mycobacterium avium CNCTC My 330/88 after 21 days by micromethod; format: functional; conditions: CNCTC My 330/88, 504 h
[2] = tested on: Mycobacterium tuberculosis; assay: Antimycobacterial activity against Mycobacterium tuberculosis CNCTC My 331/88 after 14 days by micromethod; format: functional; conditions: CNCTC My 331/88, 336 h
Mycobacterium avium [3] = assay: Antimycobacterial activity against Mycobacterium avium CNCTC My 330/88 after 14 days by micromethod; format: functional; conditions: CNCTC My 330/88, 336 h
Mycobacterium kansasii [4] = assay: Antimycobacterial activity against Mycobacterium kansasii CNCTC My 235/80 after 14 days by micromethod; format: functional; conditions: CNCTC My 235/80, 336 h
Mycobacterium kansasii [5] = assay: Antimycobacterial activity against Mycobacterium kansasii 6509/96 clinical isolate after 14 days by micromethod; format: functional; conditions: 6509/96, 336 h
Candida albicans [6] = assay: Antifungal activity against Candida albicans ATCC 44859 after 24 hrs by broth microdilution method; format: functional; conditions: ATCC 44859, 24 h
Candida albicans [7] = assay: Antifungal activity against Candida albicans ATCC 44859 after 48 hrs by broth microdilution method; format: functional; conditions: ATCC 44859, 48 h
Candida tropicalis [8] = assay: Antifungal activity against Candida tropicalis 156 after 24 hrs by broth microdilution method; format: functional; conditions: Candida tropicalis, 156, 24 h
Candida tropicalis [9] = assay: Antifungal activity against Candida tropicalis 156 after 48 hrs by broth microdilution method; format: functional; conditions: Candida tropicalis, 156, 48 h
Pichia kudriavzevii [10] = assay: Antifungal activity against Candida krusei E28 after 24 hrs by broth microdilution method; format: functional; conditions: E28, 24 h
Pichia kudriavzevii [11] = assay: Antifungal activity against Candida krusei E28 after 48 hrs by broth microdilution method; format: functional; conditions: E28, 48 h
Nakaseomyces glabratus [12] = assay: Antifungal activity against Candida glabrata 20/I after 24 hrs by broth microdilution method; format: functional
Nakaseomyces glabratus [13] = assay: Antifungal activity against Candida glabrata 20/I after 48 hrs by broth microdilution method; format: functional
Trichosporon asahii [14] = assay: Antifungal activity against Trichosporon asahii 1188 after 24 hrs by broth microdilution method; format: functional; conditions: Trichosporon asahii, 1188, 24 h
Trichosporon asahii [15] = assay: Antifungal activity against Trichosporon asahii 1188 after 48 hrs by broth microdilution method; format: functional; conditions: Trichosporon asahii, 1188, 48 h
Aspergillus fumigatus [16] = assay: Antifungal activity against Aspergillus fumigatus 231 after 24 hrs by broth microdilution method; format: functional; conditions: Aspergillus fumigatus, 231, 24 h
Aspergillus fumigatus [17] = assay: Antifungal activity against Aspergillus fumigatus 231 after 48 hrs by broth microdilution method; format: functional; conditions: Aspergillus fumigatus, 231, 48 h
Lichtheimia corymbifera [18] = assay: Antifungal activity against Absidia corymbifera 272 after 24 hrs by broth microdilution method; format: functional; conditions: Lichtheimia corymbifera, 272, 24 h
Lichtheimia corymbifera [19] = assay: Antifungal activity against Absidia corymbifera 272 after 48 hrs by broth microdilution method; format: functional; conditions: Lichtheimia corymbifera, 272, 48 h
[20] = tested on: Trichophyton mentagrophytes; assay: Antifungal activity against Trichophyton mentagrophytes 445 after 72 hrs by broth microdilution method; format: functional; conditions: Trichophyton mentagrophytes, 445, 72 h
[21] = tested on: Trichophyton mentagrophytes; assay: Antifungal activity against Trichophyton mentagrophytes 445 after 120 hrs by broth microdilution method; format: functional; conditions: Trichophyton mentagrophytes, 445, 120 h
Staphylococcus aureus [22] = assay: Antibacterial activity against Staphylococcus aureus ATCC 6538 after 24 hrs by broth microdilution method; format: functional; conditions: ATCC 6538, 24 h
Staphylococcus aureus [23] = assay: Antibacterial activity against Staphylococcus aureus ATCC 6538 after 48 hrs by broth microdilution method; format: functional; conditions: ATCC 6538, 48 h
Staphylococcus aureus [24] = assay: Antibacterial activity against methicillin-resistant Staphylococcus aureus HK5996/08 after 24 hrs by broth microdilution method; format: functional; conditions: HK5996/08, 24 h
Staphylococcus aureus [25] = assay: Antibacterial activity against methicillin-resistant Staphylococcus aureus HK5996/08 after 48 hrs by broth microdilution method; format: functional; conditions: HK5996/08, 48 h
[26] = tested on: Staphylococcus epidermidis; assay: Antibacterial activity against Staphylococcus epidermidis HK6996/08 after 24 hrs by broth microdilution method; format: functional; conditions: HK6996/08, 24 h
[27] = tested on: Staphylococcus epidermidis; assay: Antibacterial activity against Staphylococcus epidermidis HK6996/08 after 48 hrs by broth microdilution method; format: functional; conditions: HK6996/08, 48 h
Enterococcus sp. [28] = assay: Antibacterial activity against Enterococcus sp. HK14365/08 after 24 hrs by broth microdilution method; format: functional; conditions: HK14365/08, 24 h
Enterococcus sp. [29] = assay: Antibacterial activity against Enterococcus sp. HK14365/08 after 48 hrs by broth microdilution method; format: functional; conditions: HK14365/08, 48 h
Escherichia coli [30] = assay: Antibacterial activity against Escherichia coli ATCC 8739 after 24 hrs by broth microdilution method; format: functional; conditions: ATCC 8739, 24 h
Escherichia coli [31] = assay: Antibacterial activity against Escherichia coli ATCC 8739 after 48 hrs by broth microdilution method; format: functional; conditions: ATCC 8739, 48 h
Klebsiella pneumoniae [32] = assay: Antibacterial activity against Klebsiella pneumoniae HK11750/08 after 24 hrs by broth microdilution method; format: functional; conditions: HK11750/08, 24 h
Klebsiella pneumoniae [33] = assay: Antibacterial activity against Klebsiella pneumoniae HK11750/08 after 48 hrs by broth microdilution method; format: functional; conditions: HK11750/08, 48 h
Klebsiella pneumoniae [34] = assay: Antibacterial activity against extended spectrum beta-lactamase producing Klebsiella pneumoniae HK14368/08 after 24 hrs by broth microdilution method; format: functional; conditions: HK14368/08, 24 h
Klebsiella pneumoniae [35] = assay: Antibacterial activity against extended spectrum beta-lactamase producing Klebsiella pneumoniae HK14368/08 after 48 hrs by broth microdilution method; format: functional; conditions: HK14368/08, 48 h
Pseudomonas aeruginosa [36] = assay: Antibacterial activity against Pseudomonas aeruginosa ATCC 9027 after 24 hrs by broth microdilution method; format: functional; conditions: ATCC 9027, 24 h
Pseudomonas aeruginosa [37] = assay: Antibacterial activity against Pseudomonas aeruginosa ATCC 9027 after 48 hrs by broth microdilution method; format: functional; conditions: ATCC 9027, 48 h
[38] = Cytotoxicity against human HuH7 cells assessed as cell viability at 30 uM after 48 hrs by MTS assay relative to control; format: cell-based, Huh-7; conditions: read-out: Activity
Huh-7 = assay: Cytotoxicity against human HuH7 cells assessed as cell viability after 48 hrs by MTS assay; format: cell-based; conditions: Huh-7, 48 h
A-431 = assay: Cytotoxicity against human A431 cells assessed as cell viability after 48 hrs by MTS assay; format: cell-based; conditions: A-431, 48 h
[39] = Cytotoxicity against human A431 cells assessed as cell viability at 30 uM after 48 hrs by MTS assay relative to control; format: cell-based, A-431; conditions: read-out: Activity
MDCK = assay: Cytotoxicity against MDCK cells assessed as cell viability after 48 hrs by MTS assay; format: cell-based; conditions: Canis lupus familiaris
[40] = Cytotoxicity against MDCK cells assessed as cell viability at 30 uM after 48 hrs by MTS assay relative to control; format: cell-based, Canis lupus familiaris; conditions: dog, read-out: Activity
HepG2 = assay: Cytotoxicity against human HepG2 cells assessed as cell viability after 48 hrs by MTS assay; format: cell-based; conditions: HepG2, 48 h
[41] = Cytotoxicity against human HepG2 cells assessed as cell viability at 30 uM after 48 hrs by MTS assay relative to control; format: cell-based; conditions: read-out: Activity
[42] = Selectivity index, ratio of IC50 for human HepG2 cells to MIC for Mycobacterium tuberculosis; format: toxicity; conditions: read-out: Selectivity Index
[43] = tested on: Mycobacterium tuberculosis; assay: Antimycobacterial activity against Mycobacterium tuberculosis CNCTC My 331/88 after 21 days by micromethod; format: functional; conditions: CNCTC My 331/88, 504 h
Mycobacterium kansasii [44] = assay: Antimycobacterial activity against Mycobacterium kansasii CNCTC My 235/80 after 21 days by micromethod; format: functional; conditions: CNCTC My 235/80, 504 h
Mycobacterium kansasii [45] = assay: Antimycobacterial activity against Mycobacterium kansasii CNCTC My 235/80 after 7 days by micromethod; format: functional; conditions: CNCTC My 235/80, 168 h
Mycobacterium kansasii [46] = assay: Antimycobacterial activity against Mycobacterium kansasii 6509/96 clinical isolate after 21 days by micromethod; format: functional; conditions: 6509/96, 504 h
Mycobacterium kansasii [47] = assay: Antimycobacterial activity against Mycobacterium kansasii 6509/96 clinical isolate after 7 days by micromethod; format: functional; conditions: 6509/96, 168 h

COc1ccc(CSc2nnc(-c3cc([N+](=O)[O-])cc([N+](=O)[O-])c3)o2)cc1
0.125 µM: MIC (Mycobacterium kansasii [4]) | MIC (Mycobacterium kansasii [44]) | MIC (Mycobacterium kansasii [45]) | MIC (Mycobacterium kansasii [47])
4 µM: MIC (Mycobacterium avium [1]) | MIC (Mycobacterium avium [3])
0.06 µM: MIC [43]
119%: viability at 48 h, 30 µM [40]
118%: viability at 48 h, 30 µM [38]
> 500 µM: MIC (Candida albicans [6]) | MIC (Candida albicans [7]) | MIC (Candida tropicalis [8]) | MIC (Candida tropicalis [9]) | MIC (Pichia kudriavzevii [10]) | MIC (Pichia kudriavzevii [11]) | MIC (Nakaseomyces glabratus [12]) | MIC (Nakaseomyces glabratus [13]) | MIC (Trichosporon asahii [14]) | MIC (Trichosporon asahii [15]) | MIC (Aspergillus fumigatus [16]) | MIC (Aspergillus fumigatus [17]) | MIC (Lichtheimia corymbifera [18]) | MIC (Lichtheimia corymbifera [19]) | MIC [20] | MIC [21] | MIC (Staphylococcus aureus [22]) | MIC (Staphylococcus aureus [23]) | MIC (Staphylococcus aureus [24]) | MIC (Staphylococcus aureus [25]) | MIC [26] | MIC [27] | MIC (Enterococcus sp. [28]) | MIC (Enterococcus sp. [29]) | MIC (Escherichia coli [30]) | MIC (Escherichia coli [31]) | MIC (Klebsiella pneumoniae [32]) | MIC (Klebsiella pneumoniae [33]) | MIC (Klebsiella pneumoniae [34]) | MIC (Klebsiella pneumoniae [35]) | MIC (Pseudomonas aeruginosa [36]) | MIC (Pseudomonas aeruginosa [37])
93%: viability at 48 h, 30 µM [39]
> 30 µM: IC50 (Huh-7) | IC50 (A-431) | IC50 (MDCK) | IC50 (HepG2)
> 1000: selectivity ratio [42]
126%: viability at 48 h, 30 µM [41]
0.03 µM: MIC [2]
0.25 µM: MIC (Mycobacterium kansasii [5]) | MIC (Mycobacterium kansasii [46])

O=[N+]([O-])c1cc(-n2nnnc2SCc2ccc(Cl)c(Cl)c2)cc([N+](=O)[O-])c1
125 µM: MIC (Staphylococcus aureus [24]) | MIC (Staphylococcus aureus [25])
> 120: selectivity ratio [42]
250 µM: MIC [26] | MIC [27]
8 µM: MIC (Mycobacterium avium [3])
84%: viability at 48 h, 30 µM [40]
137%: viability at 48 h, 30 µM [38]
> 30 µM: IC50 (Huh-7) | IC50 (A-431) | IC50 (MDCK) | IC50 (HepG2)
1 µM: MIC (Mycobacterium kansasii [4]) | MIC (Mycobacterium kansasii [44]) | MIC (Mycobacterium kansasii [46])
32 µM: MIC (Mycobacterium avium [1])
62 µM: MIC (Staphylococcus aureus [22]) | MIC (Staphylococcus aureus [23])
> 500 µM: MIC (Candida albicans [6]) | MIC (Candida albicans [7]) | MIC (Candida tropicalis [8]) | MIC (Candida tropicalis [9]) | MIC (Pichia kudriavzevii [10]) | MIC (Pichia kudriavzevii [11]) | MIC (Nakaseomyces glabratus [12]) | MIC (Nakaseomyces glabratus [13]) | MIC (Trichosporon asahii [14]) | MIC (Trichosporon asahii [15]) | MIC (Aspergillus fumigatus [16]) | MIC (Aspergillus fumigatus [17]) | MIC (Lichtheimia corymbifera [18]) | MIC (Lichtheimia corymbifera [19]) | MIC [20] | MIC [21] | MIC (Enterococcus sp. [28]) | MIC (Enterococcus sp. [29]) | MIC (Escherichia coli [30]) | MIC (Escherichia coli [31]) | MIC (Klebsiella pneumoniae [32]) | MIC (Klebsiella pneumoniae [33]) | MIC (Klebsiella pneumoniae [34]) | MIC (Klebsiella pneumoniae [35]) | MIC (Pseudomonas aeruginosa [36]) | MIC (Pseudomonas aeruginosa [37])
90%: viability at 48 h, 30 µM [39]
0.25 µM: MIC [2] | MIC [43] | MIC (Mycobacterium kansasii [47])
0.5 µM: MIC (Mycobacterium kansasii [5]) | MIC (Mycobacterium kansasii [45])
145%: viability at 48 h, 30 µM [41]
